Several values for one entry are separate records, joined by “and”; a condition that tells them apart may be missing. Identical values can stand only once.
System: icHep (PXB-cells on claudin-1, -2, -3, -9 coated Transwell permeable support)
Assay: icHep permeation assay (sinusoidal to bile side) to estimate drug biliary excretion clearance
Settings: for In vitro CLbile, app: single replicates; for Predicted in vivo CLbile, int, Mean: mean of 3; for In vitro CLbile, int / Predicted in vivo CLbile, int: single replicate; for Biliary excretion clearance, in vivo, predicted, CLbile, int: scaled up from in vitro CLbile,int, mean ± S.D., n = 3
[1] = Control, block with icHep (HUM181001B)
[2] = Control, block with icHep (JFC)

CN/C(=N/CCSCc1nc[nH]c1C)NC#N [Cimetidine, cimetidine]
In vitro CLbile, app, Mean [1]: 0.585 ul/min/106 cells
In vitro CLbile, app [1]: 0.596 ul/min/106 cells and 0.590 ul/min/106 cells and 0.570 ul/min/106 cells
In vitro CLbile, app, Mean [2]: 1.14 ul/min/106 cells
In vitro CLbile, app [2]: 1.06 ul/min/106 cells and 1.22 ul/min/106 cells and 1.15 ul/min/106 cells
Predicted in vivo CLbile, int, Mean (icHep (HUM181001B)): 97.8 mL/min
In vitro CLbile, int (icHep (HUM181001B)): 0.316 ul/min/106 cells and 0.409 ul/min/106 cells and 0.633 ul/min/106 cells
Predicted in vivo CLbile, int (icHep (HUM181001B)): 68.3 mL/min and 88.4 mL/min and 137 mL/min
In vitro CLbile, app, Mean (icHep (HUM181001B)): 1.04 ul/min/106 cells
Biliary excretion clearance, in vivo, predicted, CLbile, int (icHep (HUM181001B)): 97.8 ± 35.1 mL/min
In vitro CLbile, app (icHep (HUM181001B)): 0.913 ul/min/106 cells and 1.00 ul/min/106 cells and 1.20 ul/min/106 cells
Predicted in vivo CLbile, int, Mean (icHep (JFC)): 188 mL/min
In vitro CLbile, int (icHep (JFC)): 0.810 ul/min/106 cells and 1.04 ul/min/106 cells and 0.756 ul/min/106 cells
Predicted in vivo CLbile, int (icHep (JFC)): 175 mL/min and 225 mL/min and 163 mL/min
In vitro CLbile, app, Mean (icHep (JFC)): 2.01 ul/min/106 cells
Biliary excretion clearance, in vivo, predicted, CLbile, int (icHep (JFC)): 188 ± 32.8 mL/min
In vitro CLbile, app (icHep (JFC)): 1.87 ul/min/106 cells and 2.26 ul/min/106 cells and 1.90 ul/min/106 cells

C[C@H]1O[C@@H](O[C@H]2[C@@H](O)C[C@H](O[C@H]3[C@@H](O)C[C@H](O[C@H]4CC[C@@]5(C)[C@H](CC[C@@H]6[C@@H]5C[C@@H](O)[C@]5(C)[C@@H](C7=CC(=O)OC7)CC[C@]65O)C4)O[C@@H]3C)O[C@@H]2C)C[C@H](O)[C@@H]1O [Digoxin, digoxin]
Predicted in vivo CLbile, int (icHep (HUM181001B)): 242 mL/min and 175 mL/min
Predicted in vivo CLbile, int (icHep (JFC)): 71.3 mL/min and 159 mL/min and 72.7 mL/min

CC[C@H]1OC(=O)[C@H](C)[C@@H](O[C@H]2C[C@@](C)(OC)[C@@H](O)[C@H](C)O2)[C@H](C)[C@@H](O[C@@H]2O[C@H](C)C[C@H](N(C)C)[C@H]2O)[C@](C)(O)C[C@@H](C)C(=O)[C@H](C)[C@@H](O)[C@]1(C)O [Erythromycin, erythromycin]
In vitro CLbile, app, Mean [1]: 0.624 ul/min/106 cells
In vitro CLbile, app [1]: 0.611 ul/min/106 cells and 0.632 ul/min/106 cells and 0.630 ul/min/106 cells
In vitro CLbile, app [2]: 1.41 ul/min/106 cells and 1.36 ul/min/106 cells and 1.35 ul/min/106 cells
Predicted in vivo CLbile, int, Mean (icHep (HUM181001B)): 171 mL/min
In vitro CLbile, int (icHep (HUM181001B)): 0.865 ul/min/106 cells and 0.795 ul/min/106 cells and 0.720 ul/min/106 cells
Predicted in vivo CLbile, int (icHep (HUM181001B)): 187 mL/min and 172 mL/min and 155 mL/min
Biliary excretion clearance, in vivo, predicted, CLbile, int (icHep (HUM181001B)): 171 ± 15.6 mL/min
In vitro CLbile, app (icHep (HUM181001B)): 1.48 ul/min/106 cells and 1.43 ul/min/106 cells and 1.35 ul/min/106 cells
Predicted in vivo CLbile, int, Mean (icHep (JFC)): 158 mL/min
In vitro CLbile, int (icHep (JFC)): 0.650 ul/min/106 cells and 0.762 ul/min/106 cells and 0.784 ul/min/106 cells
Predicted in vivo CLbile, int (icHep (JFC)): 140 mL/min and 165 mL/min and 169 mL/min
Biliary excretion clearance, in vivo, predicted, CLbile, int (icHep (JFC)): 158 ± 15.6 mL/min
In vitro CLbile, app (icHep (JFC)): 2.06 ul/min/106 cells and 2.13 ul/min/106 cells

CN(Cc1cnc2nc(N)nc(N)c2n1)c1ccc(C(=O)N[C@@H](CCC(=O)O)C(=O)O)cc1 [Methotrexate, methotrexate]
In vitro CLbile, app, Mean [1]: 1.51 ul/min/106 cells
In vitro CLbile, app [1]: 1.65 ul/min/106 cells and 1.43 ul/min/106 cells and 1.44 ul/min/106 cells
In vitro CLbile, app, Mean [2]: 1.37 ul/min/106 cells
In vitro CLbile, app [2]: 1.41 ul/min/106 cells and 1.36 ul/min/106 cells and 1.35 ul/min/106 cells
Predicted in vivo CLbile, int, Mean (icHep (HUM181001B)): 157 mL/min
In vitro CLbile, int (icHep (HUM181001B)): 0.425 ul/min/106 cells and 0.942 ul/min/106 cells and 0.808 ul/min/106 cells
Predicted in vivo CLbile, int (icHep (HUM181001B)): 91.9 mL/min and 203 mL/min and 175 mL/min
In vitro CLbile, app, Mean (icHep (HUM181001B)): 2.23 ul/min/106 cells
Biliary excretion clearance, in vivo, predicted, CLbile, int (icHep (HUM181001B)): 157 ± 57.9 mL/min
In vitro CLbile, app (icHep (HUM181001B)): 2.08 ul/min/106 cells and 2.37 ul/min/106 cells and 2.25 ul/min/106 cells
Predicted in vivo CLbile, int, Mean (icHep (JFC)): 241 mL/min
In vitro CLbile, int (icHep (JFC)): 1.21 ul/min/106 cells and 1.27 ul/min/106 cells and 0.865 ul/min/106 cells
Predicted in vivo CLbile, int (icHep (JFC)): 261 mL/min and 274 mL/min and 187 mL/min
In vitro CLbile, app, Mean (icHep (JFC)): 2.11 ul/min/106 cells
Biliary excretion clearance, in vivo, predicted, CLbile, int (icHep (JFC)): 241 ± 46.9 mL/min
In vitro CLbile, app (icHep (JFC)): 2.06 ul/min/106 cells and 2.12 ul/min/106 cells and 2.13 ul/min/106 cells

CCOc1ccc2ccccc2c1C(=O)N[C@@H]1C(=O)N2[C@@H]1SC(C)(C)[C@@H]2C(=O)O [Nafcillin, nafcillin]
In vitro CLbile, app, Mean [1]: 0.838 ul/min/106 cells
In vitro CLbile, app [1]: 0.848 ul/min/106 cells and 0.836 ul/min/106 cells and 0.830 ul/min/106 cells
In vitro CLbile, app, Mean [2]: 1.10 ul/min/106 cells
In vitro CLbile, app [2]: 0.724 ul/min/106 cells and 1.28 ul/min/106 cells and 1.30 ul/min/106 cells
Predicted in vivo CLbile, int, Mean (icHep (HUM181001B)): 232 mL/min
In vitro CLbile, int (icHep (HUM181001B)): 0.964 ul/min/106 cells and 1.03 ul/min/106 cells and 1.23 ul/min/106 cells
Predicted in vivo CLbile, int (icHep (HUM181001B)): 208 mL/min and 222 mL/min and 266 mL/min
In vitro CLbile, app, Mean (icHep (HUM181001B)): 1.91 ul/min/106 cells
Biliary excretion clearance, in vivo, predicted, CLbile, int (icHep (HUM181001B)): 232 ± 30.1 mL/min
In vitro CLbile, app (icHep (HUM181001B)): 1.81 ul/min/106 cells and 1.86 ul/min/106 cells and 2.06 ul/min/106 cells
Predicted in vivo CLbile, int, Mean (icHep (JFC)): 479 mL/min
In vitro CLbile, int (icHep (JFC)): 3.37 ul/min/106 cells and 1.82 ul/min/106 cells and 1.47 ul/min/106 cells
Predicted in vivo CLbile, int (icHep (JFC)): 727 mL/min and 394 mL/min and 316 mL/min
In vitro CLbile, app, Mean (icHep (JFC)): 3.32 ul/min/106 cells
Biliary excretion clearance, in vivo, predicted, CLbile, int (icHep (JFC)): 479 ± 218 mL/min
In vitro CLbile, app (icHep (JFC)): 4.09 ul/min/106 cells and 3.10 ul/min/106 cells and 2.77 ul/min/106 cells

CC[C@]1(O)C[C@H]2CN(CCc3c([nH]c4ccccc34)[C@@](C(=O)OC)(c3cc4c(cc3OC)N(C=O)[C@H]3[C@@](O)(C(=O)OC)[C@H](OC(C)=O)[C@]5(CC)C=CCN6CC[C@]43[C@@H]65)C2)C1 [Vincristine, vincristine]
In vitro CLbile, app, Mean [1]: 0.159 ul/min/106 cells
In vitro CLbile, app [1]: 0.124 ul/min/106 cells and 0.154 ul/min/106 cells and 0.199 ul/min/106 cells
In vitro CLbile, app, Mean [2]: 0.205 ul/min/106 cells
In vitro CLbile, app [2]: 0.186 ul/min/106 cells and 0.220 ul/min/106 cells and 0.208 ul/min/106 cells
Predicted in vivo CLbile, int, Mean (icHep (HUM181001B)): 27.6 mL/min
In vitro CLbile, int (icHep (HUM181001B)): 0.176 ul/min/106 cells and 0.118 ul/min/106 cells and 0.0898 ul/min/106 cells
Predicted in vivo CLbile, int (icHep (HUM181001B)): 38.0 mL/min and 25.6 mL/min and 19.4 mL/min
In vitro CLbile, app, Mean (icHep (HUM181001B)): 0.287 ul/min/106 cells
Biliary excretion clearance, in vivo, predicted, CLbile, int (icHep (HUM181001B)): 27.6 ± 9.46 mL/min
In vitro CLbile, app (icHep (HUM181001B)): 0.300 ul/min/106 cells and 0.273 ul/min/106 cells and 0.289 ul/min/106 cells
Predicted in vivo CLbile, int, Mean (icHep (JFC)): 37.3 mL/min
In vitro CLbile, int (icHep (JFC)): 0.159 ul/min/106 cells and 0.230 ul/min/106 cells and 0.129 ul/min/106 cells
Predicted in vivo CLbile, int (icHep (JFC)): 34.3 mL/min and 49.7 mL/min and 27.8 mL/min
In vitro CLbile, app, Mean (icHep (JFC)): 0.377 ul/min/106 cells
Biliary excretion clearance, in vivo, predicted, CLbile, int (icHep (JFC)): 37.3 ± 11.2 mL/min
In vitro CLbile, app (icHep (JFC)): 0.345 ul/min/106 cells and 0.450 ul/min/106 cells and 0.337 ul/min/106 cells

Source: article PMC10444810, “Induction of open-form bile canaliculus formation by hepatocytes for evaluation of biliary drug excretion” (Communications Biology, 2023)
